Publication PMC7156458, “Synthetic biology based construction of biological activity-related library of fungal decalin-containing diterpenoid pyrones” (Nature Communications, 2020)

Molecular target: Aβ42 (Homo sapiens, UniProt P05067)
Assay: Th-T (thioflavin-T) assay of Aβ42 aggregation
Type: biochemical
Details: for Th-T assay plate reading, mean of three wells (Supplementary Fig. 47): source data, Ab alone and No Ab as controls

Aβ42, sequence (P05067 672-713): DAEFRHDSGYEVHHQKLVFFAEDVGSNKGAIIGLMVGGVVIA

C=C1CCC2C(C)(CCC=C(C)C)C(O)CCC2(C)C1Cc1c(OC)oc(C)c(C)c1=O (stereo not drawn) [Compound 15, viridoxin A hydrolysate]
Th-T fluorescence, mean of three wells (Aβ42 aggregation time course, reading M117): 3.35
Th-T fluorescence, mean of three wells (Aβ42 aggregation time course, reading M118): 3.314
Th-T fluorescence, mean of three wells (Aβ42 aggregation time course, reading M119): 3.3216
Th-T fluorescence, mean of three wells (Aβ42 aggregation time course, reading M120): 3.354
Th-T fluorescence, mean of three wells (Aβ42 aggregation time course, reading M121): 3.335
Th-T fluorescence, mean of three wells (Aβ42 aggregation time course, reading M122): 3.364
Th-T fluorescence, mean of three wells (Aβ42 aggregation time course, reading M123): 3.352
Th-T fluorescence, mean of three wells (Aβ42 aggregation time course, reading M124): 3.339
Th-T fluorescence, mean of three wells (Aβ42 aggregation time course, reading M125): 3.327
Th-T fluorescence, mean of three wells (Aβ42 aggregation time course, reading M126): 3.362
Th-T fluorescence, mean of three wells (Aβ42 aggregation time course, reading M127): 3.317
Th-T fluorescence, mean of three wells (Aβ42 aggregation time course, reading M128): 3.323
Th-T fluorescence, mean of three wells (Aβ42 aggregation time course, reading M129): 3.297
Th-T fluorescence, mean of three wells (Aβ42 aggregation time course, reading M130): 3.34
Th-T fluorescence, mean of three wells (Aβ42 aggregation time course, reading M131): 3.327
Th-T fluorescence, mean of three wells (Aβ42 aggregation time course, reading M132): 3.341
Th-T fluorescence, mean of three wells (Aβ42 aggregation time course, reading M133): 3.324
Th-T fluorescence, mean of three wells (Aβ42 aggregation time course, reading M134): 3.304
Th-T fluorescence, mean of three wells (Aβ42 aggregation time course, reading M135): 3.315
Th-T fluorescence, mean of three wells (Aβ42 aggregation time course, reading M136): 3.347
Th-T fluorescence, mean of three wells (Supplementary Fig. 47, reading M137): 3.349
Th-T fluorescence, mean of three wells (Supplementary Fig. 47, reading M138): 3.365
Th-T fluorescence, mean of three wells (Supplementary Fig. 47, reading M139): 3.354
Th-T fluorescence, mean of three wells (Supplementary Fig. 47, reading M140): 3.356
Th-T fluorescence, mean of three wells (Supplementary Fig. 47, reading M141): 3.3427
Th-T fluorescence, mean of three wells (Supplementary Fig. 47, reading M142): 3.34
Th-T fluorescence, mean of three wells (Supplementary Fig. 47, reading M143): 3.336
Th-T fluorescence, mean of three wells (Supplementary Fig. 47, reading M144): 3.346
Th-T fluorescence, mean of three wells (Supplementary Fig. 47, reading M145): 3.328
Th-T assay plate reading, mean of three wells (Supplementary Fig. 47) (measurement M1): 0.2276
Th-T assay plate reading, mean of three wells (Supplementary Fig. 47) (measurement M2): 0.2029
Th-T assay plate reading, mean of three wells (Supplementary Fig. 47) (measurement M3): 0.2068
Th-T assay plate reading, mean of three wells (Supplementary Fig. 47) (measurement M4): 0.2103
Th-T assay plate reading, mean of three wells (Supplementary Fig. 47) (measurement M5): 0.2149
Th-T assay plate reading, mean of three wells (Supplementary Fig. 47) (measurement M6): 0.2264
Th-T assay plate reading, mean of three wells (Supplementary Fig. 47) (measurement M7): 0.2421
Th-T assay plate reading, mean of three wells (Supplementary Fig. 47) (measurement M8): 0.3484
Th-T assay plate reading, mean of three wells (Supplementary Fig. 47) (measurement M9): 0.4623
Th-T assay plate reading, mean of three wells (Supplementary Fig. 47) (measurement M10): 0.8904
Th-T assay plate reading, mean of three wells (Supplementary Fig. 47) (measurement M11): 1.43
Th-T assay plate reading, mean of three wells (Supplementary Fig. 47) (measurement M12): 1.748
Th-T assay plate reading, mean of three wells (Supplementary Fig. 47) (measurement M13): 1.906
Th-T assay plate reading, mean of three wells (Supplementary Fig. 47) (measurement M14): 1.9845
Th-T assay plate reading, mean of three wells (Supplementary Fig. 47) (measurement M15): 1.9935
Th-T assay plate reading, mean of three wells (Supplementary Fig. 47) (measurement M16): 2.026
Th-T fluorescence, mean of three wells (reading M17, Supplementary Fig. 47 source data): 2.072
Th-T fluorescence, mean of three wells (time-course reading M97, Supplementary Fig. 47 source data): 3.281
Th-T fluorescence, mean of three wells (time-course reading M98, Supplementary Fig. 47 source data): 3.314
Th-T fluorescence, mean of three wells (time-course reading M99, Supplementary Fig. 47 source data): 3.322
Th-T fluorescence, mean of three wells (time-course reading M100, Supplementary Fig. 47 source data): 3.3481
Th-T fluorescence, mean of three wells (time-course reading M101, Supplementary Fig. 47 source data): 3.295
Th-T fluorescence, mean of three wells (time-course reading M102, Supplementary Fig. 47 source data): 3.298
Th-T fluorescence, mean of three wells (time-course reading M103, Supplementary Fig. 47 source data): 3.312
Th-T fluorescence, mean of three wells (time-course reading M104, Supplementary Fig. 47 source data): 3.321
Th-T fluorescence, mean of three wells (time-course reading M105, Supplementary Fig. 47 source data): 3.301
Th-T fluorescence, mean of three wells (time-course reading M106, Supplementary Fig. 47 source data): 3.313
Th-T fluorescence, mean of three wells (time-course reading M107, Supplementary Fig. 47 source data): 3.319
Th-T fluorescence, mean of three wells (time-course reading M108, Supplementary Fig. 47 source data): 3.3191
Th-T fluorescence, mean of three wells (time-course reading M109, Supplementary Fig. 47 source data): 3.3293
Th-T fluorescence, mean of three wells (time-course reading M110, Supplementary Fig. 47 source data): 3.309
Th-T fluorescence, mean of three wells (time-course reading M111, Supplementary Fig. 47 source data): 3.3187
Th-T fluorescence, mean of three wells (time-course reading M112, Supplementary Fig. 47 source data): 3.343
Th-T fluorescence, mean of three wells (time-course reading M113, Supplementary Fig. 47 source data): 3.364
Th-T fluorescence, mean of three wells (time-course reading M114, Supplementary Fig. 47 source data): 3.378
Th-T fluorescence, mean of three wells (time-course reading M115, Supplementary Fig. 47 source data): 3.333
Th-T fluorescence, mean of three wells (time-course reading M116, Supplementary Fig. 47 source data): 3.348
